From patent US20260078120A1, “SUBSTITUTED PYRIDOPYRIMIDINONES” (MIRATI THERAPEUTICS, INC., priority 2022, published 2026)

Tests used:
[1] = tested on: T47D (PI3Kα H1047R mutant) cells; experiment: CellTiter-Glo 2.0 luminescent cell viability assay, 72 hours, T47D cells; type: cell-based; conditions: Homo sapiens, T47D, 72 h, T47D (PI3Kα H1047R mutant) cells, CellTiter-Glo, approximately 72 hours; read-out: T47D (H1047R mutant) Viability IC50
Outline: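 Cells seeded at 1000 per well overnight were dosed with a 10-concentration, 1:4 series starting at 10 µM and incubated ~72 h at 37° C. Viability was read by CellTiter-Glo 2.0 luminescence after 30 min at room temperature. IC50 came from four-parameter fits of percent vehicle control.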

[2] = tested on: SKBR3 (PI3Kα wild type) cells; experiment: CellTiter-Glo 2.0 luminescent cell viability assay, 72 hours, SKBR3 cells; type: cell-based; conditions: Homo sapiens, SK-BR-3, 72 h, SKBR3 (PI3Kα wild type) cells, CellTiter-Glo, approximately 72 hours; read-out: SKBR3 (WT) Viability IC50
Outline: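 Viability measured via CTG luminescence following roughly 72 hours of compound exposure at 37° C. Dosing used a 10 um starting concentration diluted 1:4 over 10 points; percent-of-vehicle data fitted with a variable-slope four-parameter model for IC50.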

| IC50 [1] [nM] | IC50 [2] [µM] | Structure (SMILES) |
| --- | --- | --- |
| 342 | > 10 | Cc1cc([C@@H](C)Nc2ccccc2C(=O)O)c2nc(NCC3CC3)c(C)c(=O)n2c1 [Example 11-207, (R)-2-((1-(2-((cyclopropylmethyl)amino)-3,7-dimethyl-4-oxo-4H-pyrido[1,2-a]pyrimidin-9-yl)ethyl)amino)benzoic acid] |
| > 10000 | > 10 | Cc1cc([C@@H](C)Nc2ccccc2C(=O)O)c2nc(N3CCC4(CCO4)C3)c(C#N)c(=O)n2c1 (stereo partly drawn) [Example 11-285, 2-(((1R)-1-(3-cyano-7-methyl-4-oxo-2-(1-oxa-6-azaspiro[3.4]octan-6-yl)-4H-pyrido[1,2-a]pyrimidin-9-yl)ethyl)amino)benzoic acid] |
| 2970 | > 10 | Cc1cc([C@@H](C)Nc2ccccc2C(=O)O)c2nc(-c3cccc(C(C)(C)C#N)c3)cc(=O)n2c1 [Example 11-239, (R)-2-((1-(2-(3-(2-cyanopropan-2-yl)phenyl)-7-methyl-4-oxo-4H-pyrido[1,2-a]pyrimidin-9-yl)ethyl)amino)benzoic acid] |
| 187 | > 10 | Cc1cc([C@@H](C)Nc2ccccc2C(=O)O)c2nc(N3CC(O)C4(CCC4)C3)c(C)c(=O)n2c1 (stereo partly drawn) [Example 11-28, 2-(((1R)-1-(2-(8-hydroxy-6-azaspiro[3.4]octan-6-yl)-3,7-dimethyl-4-oxo-4H-pyrido[1,2-a]pyrimidin-9-yl)ethyl)amino)benzoic acid] |
| 241 | > 10 | C[C@@H](Nc1ccccc1C(=O)O)c1cc(C(F)F)cn2c(=O)c(C#N)c(N3CCC(F)(F)CC3)nc12 [Example 11-168, (R)-2-((1-(3-cyano-7-(difluoromethyl)-2-(4,4-difluoropiperidin-1-yl)-4-oxo-4H-pyrido[1,2-a]pyrimidin-9-yl)ethyl)amino)benzoic acid] |
| 213 | > 10 | Cc1cc([C@@H](C)Nc2ccccc2C(=O)O)c2nc(N3CCC(F)(F)C[C@@H]3C)c(C)c(=O)n2c1 [Example 11-92, 2-(((R)-1-(2-((S)-4,4-difluoro-2-methylpiperidin-1-yl)-3,7-dimethyl-4-oxo-4H-pyrido[1,2-a]pyrimidin-9-yl)ethyl)amino)benzoic acid] |
| 221 | > 10 | Cc1cc([C@@H](C)Nc2ccccc2C(=O)O)c2nc(NC[C@@H]3CC3(F)F)c(C#N)c(=O)n2c1 [Example 11-157, 2-(((R)-1-(3-cyano-2-((((S)-2,2-difluorocyclopropyl)methyl)amino)-7-methyl-4-oxo-4H-pyrido[1,2-a]pyrimidin-9-yl)ethyl)amino)benzoic acid] |
| > 10000 | > 10 | COc1ccccc1-c1cc(=O)n2cc(C)cc(C(C)Nc3ccccc3C(=O)O)c2n1 (stereo not shown) [Example 11-394, 2-((1-(2-(2-methoxyphenyl)-7-methyl-4-oxo-4H-pyrido[1,2-a]pyrimidin-9-yl)ethyl)amino)benzoic acid] |
| 688 | > 10 | Cc1cc([C@@H](C)Nc2ccccc2C(=O)O)c2nc(N3Cc4nccnc4C3)c(C#N)c(=O)n2c1 [Example 11-137, (R)-2-((1-(3-cyano-2-(5,7-dihydro-6H-pyrrolo[3,4-b]pyrazin-6-yl)-7-methyl-4-oxo-4H-pyrido[1,2-a]pyrimidin-9-yl)ethyl)amino)benzoic acid] |
| 316 | > 10 | Cc1cc([C@@H](C)Nc2ccccc2C(=O)O)c2nc(N3CCC(C4CCC4)CC3)c(C)c(=O)n2c1 [Example 11-20, (R)-2-((1-(2-(4-cyclobutylpiperidin-1-yl)-3,7-dimethyl-4-oxo-4H-pyrido[1,2-a]pyrimidin-9-yl)ethyl)amino)benzoic acid] |
| 403 | > 10 | Cc1cc([C@@H](C)Nc2ccccc2C(=O)O)c2nc(N3CCn4nccc4C3)c(C)c(=O)n2c1 [Example 11-431, (R)-2-((1-(2-(6,7-dihydropyrazolo[1,5-a]pyrazin-5(4H)-yl)-3,7-dimethyl-4-oxo-4H-pyrido[1,2-a]pyrimidin-9-yl)ethyl)amino)benzoic acid] |
| 4040 | > 10 | COc1ccc(-c2cc(=O)n3cc(C)cc(C(C)Nc4ccccc4C(=O)O)c3n2)cc1 (stereo not shown) [Example 11-392, 2-((1-(2-(4-methoxyphenyl)-7-methyl-4-oxo-4H-pyrido[1,2-a]pyrimidin-9-yl)ethyl)amino)benzoic acid] |
| 118 | 7.1 | Cc1cc([C@@H](C)Nc2ccccc2C(=O)O)c2nc(N3CCN(c4ccc(C#N)cc4)C(C)C3)c(C#N)c(=O)n2c1 (stereo partly drawn) [Example 11-271, 2-(((1R)-1-(3-cyano-2-(4-(4-cyanophenyl)-3-methylpiperazin-1-yl)-7-methyl-4-oxo-4H-pyrido[1,2-a]pyrimidin-9-yl)ethyl)amino)benzoic acid] |
| 1600 | > 10 | Cc1cc([C@@H](C)Nc2ccccc2C(=O)O)c2nc(NCC3COC3)c(C#N)c(=O)n2c1 [Example 11-204, (R)-2-((1-(3-cyano-7-methyl-2-((oxetan-3-ylmethyl)amino)-4-oxo-4H-pyrido[1,2-a]pyrimidin-9-yl)ethyl)amino)benzoic acid] |
| 3150 | > 10 | Cc1cc([C@@H](C)Nc2ccc(Cl)c(F)c2C(=O)O)c2nc(N3CCC(F)(F)CC3)c(C#N)c(=O)n2c1 [Example 11-89, (R)-3-chloro-6-((1-(3-cyano-2-(4,4-difluoropiperidin-1-yl)-7-methyl-4-oxo-4H-pyrido[1,2-a]pyrimidin-9-yl)ethyl)amino)-2-fluorobenzoic acid] |
| 532 | 0.89 | Cc1cc(C(C)Nc2ccccc2C(=O)O)c2nc(N3CCCCC3)c(C(F)(F)F)c(=O)n2c1 (stereo not shown) [Example 11-415, 2-((1-(7-methyl-4-oxo-2-(piperidin-1-yl)-3-(trifluoromethyl)-4H-pyrido[1,2-a]pyrimidin-9-yl)ethyl)amino)benzoic acid] |
| 188 | > 10 | Cc1cc([C@@H](C)Nc2ccccc2C(=O)O)c2nc(N3CCN(c4cccc(C#N)c4C)CC3)c(C)c(=O)n2c1 [Example 11-438, (R)-2-((1-(2-(4-(3-cyano-2-methylphenyl)piperazin-1-yl)-3,7-dimethyl-4-oxo-4H-pyrido[1,2-a]pyrimidin-9-yl)ethyl)amino)benzoic acid] |
| 6640 | > 10 | Cc1cc([C@@H](C)Nc2ccccc2C(=O)O)c2nc(N[C@@H](C)c3cccnc3)c(C#N)c(=O)n2c1 [Example 11-52, 2-(((R)-1-(3-cyano-7-methyl-4-oxo-2-(((S)-1-(pyridin-3-yl)ethyl)amino)-4H-pyrido[1,2-a]pyrimidin-9-yl)ethyl)amino)benzoic acid] |
| 257 | > 10 | Cc1cc([C@@H](C)Nc2ccccc2C(=O)O)c2nc(N3CC(F)C3)c(C)c(=O)n2c1 [Example 11-114, (R)-2-((1-(2-(3-fluoroazetidin-1-yl)-3,7-dimethyl-4-oxo-4H-pyrido[1,2-a]pyrimidin-9-yl)ethyl)amino)benzoic acid] |
| 3360 | > 10 | Cc1cc(C(C)Nc2ccccc2C(=O)O)c2nc(-c3ccc(C#N)cc3)cc(=O)n2c1 (stereo not shown) [Example 11-397, 2-((1-(2-(4-cyanophenyl)-7-methyl-4-oxo-4H-pyrido[1,2-a]pyrimidin-9-yl)ethyl)amino)benzoic acid] |
| 6000 | > 10 | Cc1cc([C@@H](C)Nc2ccccc2C(=O)O)c2nc([C@H]3CCN(C)C(=O)C3)cc(=O)n2c1 [Example 11-376, 2-(((R)-1-(7-methyl-2-((S)-1-methyl-2-oxopiperidin-4-yl)-4-oxo-4H-pyrido[1,2-a]pyrimidin-9-yl)ethyl)amino)benzoic acid] |
| 197 | > 10 | Cc1cc([C@@H](C)Nc2ccccc2C(=O)O)c2nc(N3Cc4ncsc4C3)c(C)c(=O)n2c1 [Example 11-304, (R)-2-((1-(2-(4,6-dihydro-5H-pyrrolo[3,4-d]thiazol-5-yl)-3,7-dimethyl-4-oxo-4H-pyrido[1,2-a]pyrimidin-9-yl)ethyl)amino)benzoic acid] |
| 55.4 | > 10 | Cc1cc([C@@H](C)Nc2ccccc2C(=O)O)c2nc(N3CC4C5CCC(CC5)C4C3)c(C)c(=O)n2c1 (stereo partly drawn) [Example 10-133, 2-(((1R)-1-(3,7-dimethyl-2-(octahydro-2H-4,7-ethanoisoindol-2-yl)-4-oxo-4H-pyrido[1,2-a]pyrimidin-9-yl)ethyl)amino)benzoic acid] |
| 606 | > 10 | Cc1cc([C@@H](C)Nc2ccccc2C(=O)O)c2nc(N3CCN(C4CCOCC4)CC3)c(C#N)c(=O)n2c1 [Example 11-186, (R)-2-((1-(3-cyano-7-methyl-4-oxo-2-(4-(tetrahydro-2H-pyran-4-yl)piperazin-1-yl)-4H-pyrido[1,2-a]pyrimidin-9-yl)ethyl)amino)benzoic acid] |
| > 10000 | > 10 | Cc1cc(C(=O)N2CCCC2C(=O)O)c2nc(N3CCCCC3)cc(=O)n2c1 (stereo not shown) [Example 11-345, (7-methyl-4-oxo-2-(piperidin-1-yl)-4H-pyrido[1,2-a]pyrimidin-9-carbonyl)proline] |

| Structure (SMILES) | IC50 [1] [nM] | IC50 [2] [µM] |
| --- | --- | --- |
| Cc1cc([C@@H](C)Nc2ccccc2C(=O)O)c2nc(N3CC4CC(C3)N4c3ccc(C#N)cc3)c(C)c(=O)n2c1 [Example 11-135, 2-(((1R)-1-(2-(6-(4-cyanophenyl)-3,6-diazabicyclo[3.1.1]heptan-3-yl)-3,7-dimethyl-4-oxo-4H-pyrido[1,2-a]pyrimidin-9-yl)ethyl)amino)benzoic acid] | 169 | > 10 |
